{"source": "patent US5844102A", "about": "“Glycohydrolase inhibitors, their preparation and use thereof” (University of Maryland Baltimore County, priority 1994, dated 1998)", "key": {"[1]": {"molecular_target": "T1, isomaltase (bakers yeast) (Saccharomyces cerevisiae, UniProt P53051)", "T1 construct": "purchased Sigma Chemical Company", "T1 sequence (P53051 whole entry)": "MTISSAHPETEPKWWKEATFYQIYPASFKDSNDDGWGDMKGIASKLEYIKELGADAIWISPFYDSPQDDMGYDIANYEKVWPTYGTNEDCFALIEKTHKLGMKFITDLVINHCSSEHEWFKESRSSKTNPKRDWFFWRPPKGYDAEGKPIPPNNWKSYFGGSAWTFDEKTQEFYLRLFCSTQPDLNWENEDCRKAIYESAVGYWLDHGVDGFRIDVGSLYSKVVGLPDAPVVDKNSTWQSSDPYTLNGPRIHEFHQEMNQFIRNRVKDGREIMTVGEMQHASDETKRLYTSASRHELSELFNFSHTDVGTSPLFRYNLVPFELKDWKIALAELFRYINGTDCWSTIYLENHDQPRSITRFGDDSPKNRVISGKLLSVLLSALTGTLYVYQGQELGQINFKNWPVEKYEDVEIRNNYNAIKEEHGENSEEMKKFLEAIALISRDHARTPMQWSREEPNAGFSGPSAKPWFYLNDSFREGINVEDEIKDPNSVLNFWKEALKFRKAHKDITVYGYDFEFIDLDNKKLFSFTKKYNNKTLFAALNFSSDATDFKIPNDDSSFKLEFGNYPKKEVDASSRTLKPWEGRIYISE", "experiment": "isomaltase inhibition, p-nitrophenol glucopyranoside substrate", "assay_type": "biochemical", "method": "(§1) The enzymes α-glucosidase (yeast), β-glucosidase (almonds), isomaltase (bakers yeast) and α-mannosidase (jackbean) were purchased from Sigma Chemical Company. Glucoamylase was isolated by the present inventors by expressing the gene from Aspergillus awamori in yeast, by methods well known in the art. Enzyme assays were performed by using p-nitrophenol -α (or β)-glucopyranosides as substrate at 37° C. in phosphate buffer (0.05M, pH 6.8) for α (β)-glucosidase and isomaltase, and p-nitrophenol-α-mannopyranoside as substrate at 25° C. in citrate (0.05M, pH 4.5) buffer for α-mannosidase. Glucoamylase was assayed using maltose as substrate at 50° C. in sodium acetate buffer (0.05M, pH 4.5).\n(§2) Michaelis-Menten constant, Km, was calculated using software Grafit (Erithacus Software Ltd.). Ki was calculated by plotting K^appm vs. [Inhibitor]. FIG. 2(a) represents a plot of K^appm vs. [Inhibitor], wherein the inhibitor is the monosaccharide sugar analog isofagomin, obtained for five different glycosidases. FIG. 2(b) represents a similar plot of K^appm vs. [Inhibitor], wherein the inhibitor is the disaccharide sugar analog of formula II, obtained for five different glycosidases."}, "α-mannosidase (jackbean)": {"molecular_target": "T2, α-mannosidase (jackbean) (Canavalia ensiformis, UniProt C0HJB3)", "T2 construct": "purchased Sigma Chemical Company", "T2 sequence (C0HJB3 1-562 limits assumed)": "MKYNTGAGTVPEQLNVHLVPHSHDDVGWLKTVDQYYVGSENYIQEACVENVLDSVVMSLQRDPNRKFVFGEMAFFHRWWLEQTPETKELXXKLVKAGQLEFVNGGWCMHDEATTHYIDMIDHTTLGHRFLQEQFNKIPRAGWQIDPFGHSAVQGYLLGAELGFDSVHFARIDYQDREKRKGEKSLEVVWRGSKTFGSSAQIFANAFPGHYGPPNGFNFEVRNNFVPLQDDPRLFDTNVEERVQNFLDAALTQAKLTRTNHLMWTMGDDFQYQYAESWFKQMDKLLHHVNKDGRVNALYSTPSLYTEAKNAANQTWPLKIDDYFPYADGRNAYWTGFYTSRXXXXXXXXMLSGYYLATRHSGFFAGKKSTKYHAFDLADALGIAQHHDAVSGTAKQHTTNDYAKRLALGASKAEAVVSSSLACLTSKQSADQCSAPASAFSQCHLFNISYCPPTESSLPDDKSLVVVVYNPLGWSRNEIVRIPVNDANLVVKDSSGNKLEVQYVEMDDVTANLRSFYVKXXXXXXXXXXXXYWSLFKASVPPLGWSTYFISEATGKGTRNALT", "T2 sequence (C0HJB3 563-981 limits assumed)": "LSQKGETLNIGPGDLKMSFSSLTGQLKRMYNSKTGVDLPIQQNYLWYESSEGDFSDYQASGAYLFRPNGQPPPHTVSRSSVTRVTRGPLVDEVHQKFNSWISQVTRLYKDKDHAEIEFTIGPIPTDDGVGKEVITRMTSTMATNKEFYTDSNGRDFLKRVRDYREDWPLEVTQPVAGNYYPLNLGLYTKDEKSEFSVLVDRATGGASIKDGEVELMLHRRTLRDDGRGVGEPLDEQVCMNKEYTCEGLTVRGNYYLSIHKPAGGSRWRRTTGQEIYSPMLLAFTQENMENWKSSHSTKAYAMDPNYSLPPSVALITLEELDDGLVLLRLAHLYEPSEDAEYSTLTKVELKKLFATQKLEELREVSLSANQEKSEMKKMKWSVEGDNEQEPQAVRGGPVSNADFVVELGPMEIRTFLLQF", "experiment": "α-mannosidase inhibition, p-nitrophenol-α-mannopyranoside substrate", "assay_type": "biochemical", "conditions": "25° C., citrate buffer 0.05M, pH 4.5; read-out: Ki (inhibition constant), α-Mannosidase", "method": "as §1\n(§3) Michaelis-Menten constant, Km, was calculated using software Grafit (Erithacus Software Ltd.). Ki was calculated by plotting K^appm vs. [Inhibitor]. FIG. 2(a) represents a plot of K^appm vs. [Inhibitor], wherein the inhibitor is the monosaccharide sugar analog isofagomin, obtained for five different glycosidases."}, "[2]": {"conditions": "in vivo; cited from earlier work"}, "lysosomal α-glucosidase": {"molecular_target": "T3, lysosomal α-glucosidase (Rattus norvegicus, UniProt Q6P7A9)", "T3 construct": "host or cells: liver (in vivo)", "T3 sequence (Q6P7A9 70-953)": "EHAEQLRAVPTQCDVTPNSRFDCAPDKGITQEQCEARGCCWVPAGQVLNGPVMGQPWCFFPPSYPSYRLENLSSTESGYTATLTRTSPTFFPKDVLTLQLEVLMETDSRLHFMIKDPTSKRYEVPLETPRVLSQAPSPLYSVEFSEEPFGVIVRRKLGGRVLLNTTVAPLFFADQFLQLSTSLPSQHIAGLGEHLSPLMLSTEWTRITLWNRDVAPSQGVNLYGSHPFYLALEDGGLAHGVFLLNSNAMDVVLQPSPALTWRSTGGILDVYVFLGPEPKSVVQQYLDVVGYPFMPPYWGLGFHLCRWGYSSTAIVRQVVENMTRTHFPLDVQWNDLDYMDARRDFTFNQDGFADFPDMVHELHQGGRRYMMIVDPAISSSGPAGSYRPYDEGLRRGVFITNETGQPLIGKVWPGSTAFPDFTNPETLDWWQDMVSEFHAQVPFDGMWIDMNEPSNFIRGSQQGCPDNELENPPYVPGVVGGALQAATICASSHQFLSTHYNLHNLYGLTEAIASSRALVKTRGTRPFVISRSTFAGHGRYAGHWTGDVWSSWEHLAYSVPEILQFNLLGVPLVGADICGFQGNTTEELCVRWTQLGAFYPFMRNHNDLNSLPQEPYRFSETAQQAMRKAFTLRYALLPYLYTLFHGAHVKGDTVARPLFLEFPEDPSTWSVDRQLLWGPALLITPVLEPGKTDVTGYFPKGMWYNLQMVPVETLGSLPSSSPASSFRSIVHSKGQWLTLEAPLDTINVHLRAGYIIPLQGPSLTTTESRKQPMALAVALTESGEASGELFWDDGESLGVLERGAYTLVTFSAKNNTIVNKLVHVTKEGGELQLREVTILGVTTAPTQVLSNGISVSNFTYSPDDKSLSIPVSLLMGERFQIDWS", "conditions": "cited from earlier work"}, "β-glucosidase (almonds)": {"molecular_target": "β-glucosidase (almonds)", "experiment": "β-glucosidase inhibition, p-nitrophenol-β-glucopyranoside substrate", "assay_type": "biochemical", "conditions": "for Ki: 37° C., phosphate buffer 0.05M, pH 6.8, read-out: Ki (inhibition constant), β-Glucosidase; for inhibition of β-glucosidase, in words: hydrochloride", "method": "as §1, §2"}, "Glucoamylase": {"molecular_target": "T4, Glucoamylase (Aspergillus awamori, UniProt P69327)", "T4 construct": "made in house; host or cells: yeast", "T4 sequence (P69327 25-640)": "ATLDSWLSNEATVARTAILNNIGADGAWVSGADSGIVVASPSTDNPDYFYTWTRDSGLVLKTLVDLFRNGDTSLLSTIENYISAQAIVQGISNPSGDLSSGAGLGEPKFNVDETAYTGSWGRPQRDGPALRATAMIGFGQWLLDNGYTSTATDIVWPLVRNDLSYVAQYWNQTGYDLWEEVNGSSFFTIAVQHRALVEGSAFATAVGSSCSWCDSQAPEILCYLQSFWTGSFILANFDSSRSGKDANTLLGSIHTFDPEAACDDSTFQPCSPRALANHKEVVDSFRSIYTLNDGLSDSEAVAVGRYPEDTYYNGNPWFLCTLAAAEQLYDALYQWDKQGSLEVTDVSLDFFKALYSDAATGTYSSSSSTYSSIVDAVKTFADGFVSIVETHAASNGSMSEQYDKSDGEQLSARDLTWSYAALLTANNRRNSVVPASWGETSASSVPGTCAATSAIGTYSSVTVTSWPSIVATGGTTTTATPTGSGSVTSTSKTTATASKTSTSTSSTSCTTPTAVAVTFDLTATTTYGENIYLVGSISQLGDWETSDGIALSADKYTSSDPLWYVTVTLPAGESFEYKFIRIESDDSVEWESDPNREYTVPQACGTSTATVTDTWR", "experiment": "glucoamylase inhibition, maltose substrate", "assay_type": "biochemical", "method": "as §1, §3"}, "α-glucosidase (yeast)": {"molecular_target": "T5, α-glucosidase (yeast) (Saccharomyces cerevisiae, UniProt P53341)", "T5 construct": "purchased Sigma Chemical Company", "T5 sequence (P53341 whole entry)": "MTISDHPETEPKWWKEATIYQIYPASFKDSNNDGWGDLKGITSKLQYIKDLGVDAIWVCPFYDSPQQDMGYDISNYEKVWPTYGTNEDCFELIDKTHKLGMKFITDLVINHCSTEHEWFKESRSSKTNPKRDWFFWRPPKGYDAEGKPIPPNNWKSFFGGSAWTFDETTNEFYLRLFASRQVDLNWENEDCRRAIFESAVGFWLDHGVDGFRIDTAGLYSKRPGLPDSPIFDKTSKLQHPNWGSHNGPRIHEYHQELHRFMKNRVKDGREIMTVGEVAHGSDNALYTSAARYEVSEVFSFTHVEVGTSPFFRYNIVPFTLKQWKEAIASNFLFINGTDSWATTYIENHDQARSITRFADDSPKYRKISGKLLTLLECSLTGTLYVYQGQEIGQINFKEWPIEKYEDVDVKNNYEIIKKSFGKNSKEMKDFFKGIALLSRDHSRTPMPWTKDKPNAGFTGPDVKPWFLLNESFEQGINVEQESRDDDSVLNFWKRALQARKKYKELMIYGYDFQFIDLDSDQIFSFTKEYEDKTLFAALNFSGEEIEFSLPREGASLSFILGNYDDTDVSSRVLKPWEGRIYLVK", "experiment": "α-glucosidase inhibition, p-nitrophenol-α-glucopyranoside substrate", "assay_type": "biochemical", "conditions": "37° C., phosphate buffer 0.05M, pH 6.8; read-out: Ki (inhibition constant), α-Glucosidase", "method": "as §1, §3"}, "[3]": {"test_system": "cellulase degradation of wood", "experiment": "wood treatment, cellulase degradation", "conditions": "approximately 10 mg/kg of wood per day, several months of treatment", "method": "A wood treatment composition containing approximately 10 mg/kg of wood per day of isofagomin is administered to a piece of wood. After several months of treatment, the piece of wood is analyzed."}, "[4]": {"test_system": "glycohydrolase degradation of crop", "experiment": "agricultural crop treatment, glycohydrolase degradation", "conditions": "approximately 10 mg/kg of crop per day, several months of treatment", "method": "A composition for treating agricultural crops containing approximately 10 mg/kg of crop per day of isofagomin is administered to a crop. After several months of treatment, the crop is analyzed."}, "[5]": {"conditions": "maltose substrate, 50° C., sodium acetate buffer 0.05M, pH 4.5, read-out: Ki (inhibition constant), Glucoamylase"}, "[6]": {"conditions": "37° C., phosphate buffer 0.05M, pH 6.8, read-out: Ki (inhibition constant), Isomaltase"}}, "note": "Where two headings read alike, the source gives them in different places."}
{"smiles": "C[C@H]1O[C@H](O[C@H]2[C@H](O)[C@@H](O)[C@@H](O[C@H]3[C@H](O)[C@@H](O)C(O)O[C@@H]3CO)O[C@@H]2CO)[C@H](O)[C@@H](O)[C@@H]1N[C@H]1C=C(CO)[C@@H](O)[C@H](O)[C@H]1O", "note": "(stereo partly shown) [Acarbose, acarbose, reference compound]", "values": [{"measurement": "Ki", "setting": "[1]", "value": "> 100", "unit": "µM"}, {"measurement": "Ki", "setting": "α-mannosidase (jackbean)", "value": 7600, "unit": "µM"}]}
{"smiles": "O[C@H]1[C@H](O)[C@@H](O)CN2CC[C@H](O)[C@H]12", "note": "[Castanospermine]", "values": [{"measurement": "minimum effective dose required to reduce the glycemic response to sucrose", "setting": "[2]", "value": 1, "unit": "mg/kg"}, {"measurement": "accumulation of lysosomal glycogen", "setting": "lysosomal α-glucosidase; at the minimum effective dose (1 mg/kg)", "value": "Accumulation of lysosomal glycogen has been found"}]}
{"smiles": "OC[C@H]1NC[C@@H](O)[C@@H](O)[C@@H]1O", "note": "[Deoxymannojirimycin, reference compound]", "values": [{"measurement": "Ki", "setting": "β-glucosidase (almonds)", "value": "[…]"}, {"measurement": "Ki", "setting": "[1]", "value": 49.3, "unit": "µM"}, {"measurement": "Ki", "setting": "Glucoamylase; [5]", "value": 66, "unit": "µM"}]}
{"smiles": "OC[C@H]1NC[C@H](O)[C@@H](O)[C@@H]1O", "note": "[Deoxynojirimycin, reference compound]", "values": [{"measurement": "Ki", "setting": "β-glucosidase (almonds)", "value": "[…]"}, {"measurement": "Ki", "setting": "[1]", "value": 11.2, "unit": "µM"}, {"measurement": "Ki", "setting": "Glucoamylase; [5]", "value": 9.8, "unit": "µM"}]}
{"smiles": "Cl.OC[C@H]1CNC[C@@H](O)[C@@H]1O", "note": "[MB, (3R,4R,5R)-3,4-dihydroxy-5-hydroxymethyl-piperidine hydrochloride]", "values": [{"measurement": "Ki", "setting": "α-glucosidase (yeast)", "value": 85.9, "unit": "µM"}, {"measurement": "Ki", "setting": "β-glucosidase (almonds)", "value": 0.11, "unit": "µM"}, {"measurement": "mode of inhibition of β-glucosidase (Lineweaver-Burk plot)", "setting": "β-glucosidase (almonds); FIG. 1(a), three inhibitor concentrations", "value": "competitive inhibition"}, {"measurement": "inhibition of β-glucosidase, in words", "setting": "β-glucosidase (almonds)", "value": "surprisingly strong inhibitor"}, {"measurement": "inhibition of β-glucosidase, in words", "setting": "β-glucosidase (almonds); listed as monosaccharide analog", "value": "particularly strong inhibitor"}, {"measurement": "Ki", "setting": "[1]; [6]", "value": 7.2, "unit": "µM"}, {"measurement": "Ki", "setting": "Glucoamylase; [5]", "value": 3.7, "unit": "µM"}, {"measurement": "Ki", "setting": "α-mannosidase (jackbean)", "value": 775, "unit": "µM"}, {"measurement": "cellulase degradation of treated wood", "setting": "[3]", "value": "No cellulase degradation is detected"}, {"measurement": "glycohydrolase degradation of treated crop", "setting": "[4]", "value": "No glycohydrolase degradation is detected"}]}
{"smiles": "CO[C@H]1O[C@H](CN2C[C@H](O)[C@@H](O)[C@H](O)[C@H]2CO)[C@@H](O)[C@H](O)[C@H]1O", "note": "[MDL, 1,5-dideoxy-1,5-[(6-deoxy-1-O-methyl-6-α,D-glucopyranosyl)imino]-D-glucitol]", "values": [{"measurement": "effect on liver lysosomal α-glucosidase activity or glycogen accumulation", "setting": "lysosomal α-glucosidase; dose 10-fold higher than required to reduce the glycemic response to sucrose", "value": "did not affect"}]}
{"smiles": "CO[C@H]1O[C@H](CCN2C[C@H](CO)[C@@H](O)[C@H](O)C2)[C@@H](O)[C@H](O)[C@H]1O", "note": "[TMJ, Methyl 6,7-dideoxy-7-[(3R,4R,5R)-3,4-dihydroxy-5-hydroxymethyl-piperidinyl]-α-D-gluco-heptopyranoside]", "values": [{"measurement": "Ki", "setting": "α-glucosidase (yeast)", "value": 58.8, "unit": "µM"}, {"measurement": "Ki", "setting": "[1]; [6]", "value": 103, "unit": "µM"}, {"measurement": "Ki", "setting": "Glucoamylase", "value": 0.063, "unit": "µM"}, {"measurement": "Ki", "setting": "α-mannosidase (jackbean)", "value": 1230, "unit": "µM"}]}
